In PMC5419589 (Bioorganic & medicinal chemistry, 2016):

Key:
[1] = Brain:plasma compound concentration measurements in mice; assay type: in vivo; conditions: following intraperitoneal injection in mice
[2] = tested on: T. brucei brucei strain BF427; experiment: T. brucei growth inhibition assay; assay type: cell-based, Trypanosoma brucei brucei; conditions: T. brucei EC50 assay
[3] = tested on: T. brucei brucei (strain TREU667); experiment: Chronic; assay type: in vivo, mouse; conditions: for relapse with parasites in the blood / suppression of parasitemia during treatment phase: TREU667, 50 mg/kg twice a day oral day 21 to 34; for number of mice free of parasitemia/number of mice in the group: same dosing
[4] = Mouse oral pharmacokinetics; assay type: in vivo; conditions: mice
[5] = severe side effects of treatment; cited from earlier work

Which “permeability into brain tissue (in words)” value [1] does the source give for `Cl.NCCN(C(=O)c1ccc(Cl)cc1Cl)c1ccc(F)cc1` [Compound 1] here?
Its value is “excellent permeability into brain tissue”.

With `Cl.NCCN(C(=O)c1ccc(F)cc1C(F)(F)F)c1ccc(OCc2ccc(Cl)cc2)cc1` [Compound 65, N-(2-Aminoethyl)-N-{4-[(4-chlorophenyl)methoxy]phenyl}-4-fluoro-2-(trifluoromethyl)benzamide hydrochloride] as the compound, how does the “activity on T. brucei cells (in words)” value [2] read?
Its value is “single digit nanomolar EC50 values”.

And the “relapse with parasites in the blood” value [3]?
The value was “all mice relapsed”.

And the “suppression of parasitemia during treatment phase” value [3]?
The value was “partial suppression”.

What about the “number of mice free of parasitemia/number of mice in the group” value ([3]; day 35 post-infection, day 1 post-treatment) of the same compound?
The value was 4/4.

And the “number of mice free of parasitemia/number of mice in the group” value ([3]; day 36 post-infection, day 2 post-treatment)?
The value was 4/4.

What about the “number of mice free of parasitemia/number of mice in the group” value ([3]; day 37 post-infection, day 3 post-treatment) of the same compound?
The value was 2/4.

What about the “number of mice free of parasitemia/number of mice in the group” value ([3]; day 38 post-infection, day 4 post-treatment) of the same compound?
The value was 1/4.

What about the “number of mice free of parasitemia/number of mice in the group” value ([3]; day 39 post-infection, day 5 post-treatment) of the same compound?
Its value is 1/4.

What about the “number of mice free of parasitemia/number of mice in the group” value ([3]; day 40 post-infection, day 6 post-treatment) of the same compound?
The value was 1/4.

What about the “number of mice free of parasitemia/number of mice in the group” value ([3]; day 41–42 post-infection, day 7–8 post-treatment) of the same compound?
Its value is 1/4.

And the “number of mice free of parasitemia/number of mice in the group” value ([3]; day 43–45 post-infection, day 9–11 post-treatment)?
Its value is 1/4.

And the “number of mice free of parasitemia/number of mice in the group” value ([3]; day 46–49 post-infection, day 12–15 post-treatment)?
The value was 0/4.

With `CC(C)c1ccc(COc2ccc(N(CCN)C(=O)c3cccnc3C(F)(F)F)cc2)cc1.Cl` [Compound 73] as the compound, how does the “oral bioavailability (in words)” value [4] read?
Its value is “orally bioavailable”.

And the “relapse with parasites in the blood” value [3]?
Its value is “all mice relapsed”.

And the “suppression of parasitemia during treatment phase” value [3]?
Its value is “complete suppression”.

For `Nc1nc(N)nc(Nc2ccc([As]3SCC(CO)S3)cc2)n1` (centres unmarked) [Melarsoprol], which fatalities in patients [5] is on record?
Its fatalities in patients is 3–10%.
